How the values were obtained:
Type in all cases: biochemical
[1] = molecular target: T1, BSL-B (Bacillus subtilis lipase B) (Bacillus subtilis, UniProt Q79F14); assay: residual hydrolytic activity, p-nitrophenylpalmitate assay; settings: read-out: residual activity at 50 mM
T1 construct: gene estB
T1 sequence (Q79F14 29-210): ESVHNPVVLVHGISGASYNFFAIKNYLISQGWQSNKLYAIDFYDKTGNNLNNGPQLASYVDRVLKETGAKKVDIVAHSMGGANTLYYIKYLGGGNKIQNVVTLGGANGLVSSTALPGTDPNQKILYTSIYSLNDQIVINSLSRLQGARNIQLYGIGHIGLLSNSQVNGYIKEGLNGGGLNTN

[2] = molecular target: T2, BSL-A (Bacillus subtilis lipase A) (Bacillus subtilis, UniProt P37957); assay: p-nitrophenylpalmitate hydrolysis assay
T2 construct: gene estA
T2 sequence (P37957 32-212): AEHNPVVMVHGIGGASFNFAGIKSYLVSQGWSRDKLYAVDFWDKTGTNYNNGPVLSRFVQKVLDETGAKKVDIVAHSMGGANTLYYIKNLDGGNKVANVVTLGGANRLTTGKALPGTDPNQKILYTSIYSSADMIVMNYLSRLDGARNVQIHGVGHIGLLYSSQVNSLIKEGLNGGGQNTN

[3] = molecular target: T1, BSL-B (Bacillus subtilis lipase B); assay: p-nitrophenylpalmitate hydrolysis assay

Structure (SMILES) | remaining activity at 50000 µM [1] [%] | p-nitrophenylpalmitate hydrolysis assay [2] | p-nitrophenylpalmitate hydrolysis assay [3]
CC=CC=CC=O [2,4-hexadienal] | 19 |  | 
CCCCCCCCCCCCCCCC(=O)Oc1ccc([N+](=O)[O-])cc1 [pNPP, p-nitrophenylpalmitate] |  | assayed for residual activity using the p-nitrophenylpalmitate assay | residual enzyme activity determined with p-nitrophenylpalmitate as the substrate

From article PMC3049140, “Mechanism of acetaldehyde-induced deactivation of microbial lipases” (BMC Biochemistry, 2011)
